Legend:
Experiment in all cases: cells
639-V = type: functional, cell-based; details: Homo sapiens;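 note: growth inhibition of 639-V cells, read out with a cell viability assay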
Description: SANGER: Inhibition of human 639-V cell growth in a cell viability assay.

G-401 = type: functional, cell-based; details: Homo sapiens
Description: SANGER: Inhibition of human G-401 cell growth in a cell viability assay.

SW1088 = type: functional, cell-based; details: Homo sapiens;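 note: growth inhibition of human SW1088 cells, read out by a cell viability assay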
Description: SANGER: Inhibition of human SW1088 cell growth in a cell viability assay.

SCC-4 = type: functional, cell-based; details: Homo sapiens;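 note: growth inhibition of human SCC-4 cells, read out as cell viability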
Description: SANGER: Inhibition of human SCC-4 cell growth in a cell viability assay.

COLO-741 = type: functional, cell-based; details: Homo sapiens
Description: SANGER: Inhibition of human COLO-741 cell growth in a cell viability assay.

RO82-W-1 = type: functional, cell-based; details: Homo sapiens;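 note: growth inhibition of human RO82-W-1 cells, measured with a cell viability assay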
Description: SANGER: Inhibition of human RO82-W-1 cell growth in a cell viability assay.

OVCAR-8 = type: functional, cell-based; details: Homo sapiens;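 note: growth inhibition of human OVCAR-8 cells, read out by a cell viability assay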
Description: SANGER: Inhibition of human OVCAR-8 cell growth in a cell viability assay.

NCI-H510A = type: functional, cell-based, Homo sapiens; details: Homo sapiens, NCI-H510A;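 note: growth inhibition of NCI-H510A cells, read out with a cell viability assay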
Description: SANGER: Inhibition of human NCI-H510A cell growth in a cell viability assay.

KYSE-150 cell line = type: functional, cell-based; details: Homo sapiens;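 note: growth inhibition of human KYSE-150 cells, read out with a cell viability assay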
Description: SANGER: Inhibition of human KYSE-150 cell growth in a cell viability assay.

A 172 = type: functional, cell-based; details: Homo sapiens;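 note: growth inhibition of A172 cells, measured with a cell viability readout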
Description: SANGER: Inhibition of human A172 cell growth in a cell viability assay.

SW948 = type: functional, cell-based; details: Homo sapiens;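 note: growth inhibition of SW948 cells, read out with a cell viability assay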
Description: SANGER: Inhibition of human SW948 cell growth in a cell viability assay.

HT-3 = type: functional, cell-based; details: Homo sapiens;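 note: growth inhibition measured with a cell viability readout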
Description: SANGER: Inhibition of human HT-3 cell growth in a cell viability assay.

MFH-ino = type: functional, cell-based, Homo sapiens; details: Homo sapiens, MFH-ino;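 note: growth inhibition of human MFH-ino cells, read out by a cell viability assay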
Description: SANGER: Inhibition of human MFH-ino cell growth in a cell viability assay.

EW-22 = type: functional, cell-based; details: Homo sapiens;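 note: growth inhibition of the EW-22 cell line, measured with a cell viability readout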
Description: SANGER: Inhibition of human EW-22 cell growth in a cell viability assay.

SW756 = type: functional, cell-based; details: Homo sapiens;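 note: growth inhibition of human SW756 cells, read out with a cell viability assay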
Description: SANGER: Inhibition of human SW756 cell growth in a cell viability assay.

GMS-10 = type: functional, cell-based; details: Homo sapiens;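 note: growth inhibition of GMS-10 cells, read out as cell viability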
Description: SANGER: Inhibition of human GMS-10 cell growth in a cell viability assay.

RVH-421 = type: functional, cell-based; details: Homo sapiens
Description: SANGER: Inhibition of human RVH-421 cell growth in a cell viability assay.

HPAF-II = type: functional, cell-based; details: Homo sapiens;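 note: growth inhibition of HPAF-II cells, read out with a cell viability assay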
Description: SANGER: Inhibition of human HPAF-II cell growth in a cell viability assay.

IGROV-1 = type: functional, cell-based; details: Homo sapiens;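 note: reduction of IGROV-1 cell growth, read out with a viability assay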
Description: SANGER: Inhibition of human IGROV-1 cell growth in a cell viability assay.

ME-180 = type: functional, cell-based; details: Homo sapiens;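 note: cell viability assay measuring growth inhibition of ME-180 cells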
Description: SANGER: Inhibition of human ME-180 cell growth in a cell viability assay.

KP-N-YN = type: functional, cell-based; details: Homo sapiens;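 note: growth inhibition of KP-N-YN cells, read out with a cell viability assay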
Description: SANGER: Inhibition of human KP-N-YN cell growth in a cell viability assay.

MKN-7 = type: functional, cell-based; details: Homo sapiens;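 note: growth inhibition of MKN-7 cells, read out with a cell viability assay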
Description: SANGER: Inhibition of human MKN7 cell growth in a cell viability assay.

KYSE-510 = type: functional, cell-based; details: Homo sapiens;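 note: cell viability readout used to measure how strongly growth of the cell line is suppressed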
Description: SANGER: Inhibition of human KYSE-510 cell growth in a cell viability assay.

NCI-H460 = type: functional, cell-based; details: Homo sapiens;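 note: cell viability assay scoring growth inhibition of human NCI-H460 cells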
Description: SANGER: Inhibition of human NCI-H460 cell growth in a cell viability assay.

A2058 = type: functional, cell-based; details: Homo sapiens;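 note: reduction of A2058 cell growth, read out with a viability assay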
Description: SANGER: Inhibition of human A2058 cell growth in a cell viability assay.

SBC-5 = type: functional, cell-based; details: Homo sapiens;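 note: cell viability assay read-out, IC50 is the concentration that inhibits growth of the cells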
Description: SANGER: Inhibition of human SBC-5 cell growth in a cell viability assay.

LU-99A = type: functional, cell-based; details: Homo sapiens;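 note: growth inhibition of LU-99A cells, read out with a cell viability assay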
Description: SANGER: Inhibition of human LU-99A cell growth in a cell viability assay.

KYSE-270 = type: functional, cell-based; details: Homo sapiens;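 note: cell growth inhibition measured with a viability assay in the human KYSE-270 line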
Description: SANGER: Inhibition of human KYSE-270 cell growth in a cell viability assay.

RMG-I = type: functional, cell-based; details: Homo sapiens;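 note: growth inhibition of human RMG-I cells, read out with a cell viability assay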
Description: SANGER: Inhibition of human RMG-I cell growth in a cell viability assay.

Ca-Ski = type: functional, cell-based; details: Homo sapiens;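 note: cell viability assay measuring inhibition of Ca-Ski cell growth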
Description: SANGER: Inhibition of human Ca-Ski cell growth in a cell viability assay.

NCI-H810 = type: functional, cell-based; details: Homo sapiens;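 note: IC50 reflects inhibition of cancer cell line growth, read out with a cell viability assay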
Description: SANGER: Inhibition of human NCI-H810 cell growth in a cell viability assay.

NCI-H2405 = type: functional, cell-based; details: Homo sapiens;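 note: growth inhibition of the human cell line, read out with a cell viability assay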
Description: SANGER: Inhibition of human NCI-H2405 cell growth in a cell viability assay.

NB12 = type: functional, cell-based; details: Homo sapiens;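 note: growth inhibition of human NB12 cells, read out by a cell viability assay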
Description: SANGER: Inhibition of human NB12 cell growth in a cell viability assay.

COLO-680N = type: functional, cell-based; details: Homo sapiens;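 note: cell viability assay used to measure inhibition of COLO-680N cell growth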
Description: SANGER: Inhibition of human COLO-680N cell growth in a cell viability assay.

KYSE-140 = type: functional, cell-based; details: Homo sapiens;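 note: cell viability assay measuring growth inhibition in human KYSE-140 cells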
Description: SANGER: Inhibition of human KYSE-140 cell growth in a cell viability assay.

HSC-4 = type: functional, cell-based; details: Homo sapiens;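 note: growth inhibition of human HSC-4 cells, read out with a cell viability assay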
Description: SANGER: Inhibition of human HSC-4 cell growth in a cell viability assay.

NCI-H2347 = type: functional, cell-based; details: Homo sapiens;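 note: growth inhibition of the cell line, read out with a cell viability assay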
Description: SANGER: Inhibition of human NCI-H2347 cell growth in a cell viability assay.

BCPAP = type: functional, cell-based; details: Homo sapiens;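 note: growth inhibition of BCPAP cells, read out in a cell viability assay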
Description: SANGER: Inhibition of human BCPAP cell growth in a cell viability assay.

HCC1806 = type: functional, cell-based; details: Homo sapiens;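 note: growth inhibition of the cancer cell line, determined with a cell viability assay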
Description: SANGER: Inhibition of human HCC1806 cell growth in a cell viability assay.

MDA-MB-453 = type: functional, cell-based; details: Homo sapiens
Description: SANGER: Inhibition of human MDA-MB-453 cell growth in a cell viability assay.

SNU-449 = type: functional, cell-based; details: Homo sapiens
Description: SANGER: Inhibition of human SNU-449 cell growth in a cell viability assay.

CC1=C(/C=C/C(C)=C/C=C/C(C)=C/C(=O)O)C(C)(C)CCC1 [TRETINOIN] gave an IC50 (639-V) of over 10000 nM, an IC50 (G-401) of over 10000 nM and an IC50 (SW1088) of over 10000 nM. The IC50 (SCC-4) was over 10000 nM, the IC50 (COLO-741) was over 10000 nM and the IC50 (RO82-W-1) was over 10000 nM. For the same compound, the IC50 (OVCAR-8) was over 10000 nM, the IC50 (NCI-H510A) was over 10000 nM and the IC50 (KYSE-150 cell line) was over 10000 nM. It also gave an IC50 (A 172) of over 10000 nM, an IC50 (SW948) of over 10000 nM and an IC50 (HT-3) of over 10000 nM. For the same compound, the IC50 (MFH-ino) was over 10000 nM, the IC50 (EW-22) was over 10000 nM and the IC50 (SW756) was over 10000 nM. It also gave an IC50 (GMS-10) of over 10000 nM, an IC50 (RVH-421) of over 10000 nM and an IC50 (HPAF-II) of over 10000 nM. For the same compound, the IC50 (IGROV-1) was over 10000 nM, the IC50 (ME-180) was over 10000 nM and the IC50 (KP-N-YN) was over 10000 nM. It also gave an IC50 (MKN-7) of over 10000 nM, an IC50 (KYSE-510) of over 10000 nM and an IC50 (NCI-H460) of over 10000 nM. For the same compound, the IC50 (A2058) was over 10000 nM, the IC50 (SBC-5) was over 10000 nM and the IC50 (LU-99A) was over 10000 nM. For the same compound, the IC50 (KYSE-270) was over 10000 nM, the IC50 (RMG-I) was over 10000 nM and the IC50 (Ca-Ski) was over 10000 nM. It also gave an IC50 (NCI-H810) of over 10000 nM, an IC50 (NCI-H2405) of over 10000 nM and an IC50 (NB12) of over 10000 nM. The IC50 (COLO-680N) was over 10000 nM, the IC50 (KYSE-140) was over 10000 nM and the IC50 (HSC-4) was over 10000 nM. For the same compound, the IC50 (NCI-H2347) was over 10000 nM, the IC50 (BCPAP) was over 10000 nM and the IC50 (HCC1806) was 729 nM. It also gave an IC50 (MDA-MB-453) of over 10000 nM and an IC50 (SNU-449) of over 10000 nM.

Work on NC(=O)c1ccc(N(C(N)=O)c2c(F)cccc2F)nc1-c1ccc(F)cc1F [VX-702] yielded an IC50 (639-V) of over 2000 nM, an IC50 (G-401) of over 2000 nM and an IC50 (SW1088) of over 2000 nM. The IC50 (SCC-4) was over 2000 nM, the IC50 (COLO-741) was over 2000 nM and the IC50 (RO82-W-1) was over 2000 nM. For the same compound, the IC50 (OVCAR-8) was over 2000 nM, the IC50 (NCI-H510A) was over 2000 nM and the IC50 (KYSE-150 cell line) was over 2000 nM. For the same compound, the IC50 (A 172) was over 2000 nM, the IC50 (SW948) was over 2000 nM and the IC50 (HT-3) was over 2000 nM. For the same compound, the IC50 (MFH-ino) was over 2000 nM, the IC50 (EW-22) was over 2000 nM and the IC50 (SW756) was over 2000 nM. The IC50 (GMS-10) was over 2000 nM, the IC50 (RVH-421) was over 2000 nM and the IC50 (HPAF-II) was over 2000 nM. It also gave an IC50 (IGROV-1) of over 2000 nM, an IC50 (ME-180) of over 2000 nM and an IC50 (KP-N-YN) of over 2000 nM. The IC50 (MKN-7) was over 2000 nM, the IC50 (KYSE-510) was over 2000 nM and the IC50 (NCI-H460) was over 2000 nM. For the same compound, the IC50 (A2058) was over 2000 nM, the IC50 (SBC-5) was over 2000 nM and the IC50 (LU-99A) was over 2000 nM. For the same compound, the IC50 (KYSE-270) was over 2000 nM, the IC50 (RMG-I) was over 2000 nM and the IC50 (Ca-Ski) was over 2000 nM. It also gave an IC50 (NCI-H810) of over 2000 nM, an IC50 (NCI-H2405) of over 2000 nM and an IC50 (NB12) of over 2000 nM. The IC50 (COLO-680N) was over 2000 nM, the IC50 (KYSE-140) was over 2000 nM and the IC50 (HSC-4) was over 2000 nM. The IC50 (NCI-H2347) was over 2000 nM, the IC50 (BCPAP) was over 2000 nM and the IC50 (HCC1806) was over 2000 nM. For the same compound, the IC50 (MDA-MB-453) was over 2000 nM and the IC50 (SNU-449) was over 2000 nM.

Work on NC(=O)Nc1cc(-c2cccc(F)c2)sc1C(=O)N[C@H]1CCCNC1 [AZD-7762] yielded an IC50 (639-V) of 1170 nM, an IC50 (G-401) of over 2000 nM and an IC50 (SW1088) of 916 nM. The IC50 (SCC-4) was 1020 nM, the IC50 (COLO-741) was over 2000 nM and the IC50 (RO82-W-1) was over 2000 nM. It also gave an IC50 (OVCAR-8) of 356 nM, an IC50 (NCI-H510A) of 246 nM and an IC50 (KYSE-150 cell line) of over 2000 nM. For the same compound, the IC50 (A 172) was 692 nM, the IC50 (SW948) was over 2000 nM and the IC50 (HT-3) was 490 nM. It also gave an IC50 (MFH-ino) of over 2000 nM, an IC50 (EW-22) of 584 nM and an IC50 (SW756) of 35.8 nM. It also gave an IC50 (GMS-10) of 1350 nM, an IC50 (RVH-421) of 1190 nM and an IC50 (HPAF-II) of 970 nM. It also gave an IC50 (IGROV-1) of 244 nM, an IC50 (ME-180) of 1720 nM and an IC50 (KP-N-YN) of 349 nM. It also gave an IC50 (MKN-7) of 1210 nM, an IC50 (KYSE-510) of 1580 nM and an IC50 (NCI-H460) of 1530 nM. The IC50 (A2058) was 451 nM, the IC50 (SBC-5) was 513 nM and the IC50 (LU-99A) was over 2000 nM. The IC50 (KYSE-270) was 226 nM, the IC50 (RMG-I) was 1910 nM and the IC50 (Ca-Ski) was 388 nM. For the same compound, the IC50 (NCI-H810) was over 2000 nM, the IC50 (NCI-H2405) was over 2000 nM and the IC50 (NB12) was over 2000 nM. It also gave an IC50 (COLO-680N) of over 2000 nM, an IC50 (KYSE-140) of 130 nM and an IC50 (HSC-4) of 106 nM. The IC50 (NCI-H2347) was 1240 nM, the IC50 (BCPAP) was 1890 nM and the IC50 (HCC1806) was 40.2 nM. For the same compound, the IC50 (MDA-MB-453) was over 2000 nM and the IC50 (SNU-449) was over 2000 nM.
